Key:
[1] = Cmax in CD-1 nude mouse at 10 mg/ml, po; type: ADME, organism-based; set-up: dose 10 mg/ml, route oral; settings: in vivo
[2] = Cmax in CD-1 nude mouse at 25 mg/ml, po; type: ADME, organism-based; set-up: dose 25 mg/ml, route oral; settings: in vivo
[3] = Cmax in CD-1 nude mouse at 55 mg/ml, po; type: ADME, organism-based; set-up: dose 55 mg/ml, route oral; settings: in vivo
[4] = biological target: MAP kinase-activated protein kinase 2 (Homo sapiens) (UniProt P49137); test: Inhibition of recombinant human N-terminal GST-tagged MAPKAPK2 (46 to 400 residues) expressed in Escherichia coli at 1 uM by radiometric assay relative to control
Sequence of MAP kinase-activated protein kinase 2 (Homo sapiens) (P49137 whole entry, looked up, the tested form may be a part): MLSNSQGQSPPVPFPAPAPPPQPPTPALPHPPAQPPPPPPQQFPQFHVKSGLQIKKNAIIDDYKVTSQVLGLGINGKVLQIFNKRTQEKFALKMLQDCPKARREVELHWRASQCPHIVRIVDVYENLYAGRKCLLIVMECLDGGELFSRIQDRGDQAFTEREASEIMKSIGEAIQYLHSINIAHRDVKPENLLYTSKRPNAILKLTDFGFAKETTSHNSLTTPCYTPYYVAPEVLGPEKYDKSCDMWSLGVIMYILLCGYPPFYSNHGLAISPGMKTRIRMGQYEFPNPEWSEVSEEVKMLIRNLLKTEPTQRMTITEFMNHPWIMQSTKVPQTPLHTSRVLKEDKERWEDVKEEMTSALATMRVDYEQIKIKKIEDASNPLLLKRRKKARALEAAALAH

[5] = biological target: Rho-associated protein kinase 2 (Homo sapiens) (UniProt O75116); test: Inhibition of recombinant human N-terminal His6-tagged ROCK2 (11 to 552 residues) expressed in baculovirus infected Sf21 cells at 1 uM by radiometric assay relative to control
Sequence of Rho-associated protein kinase 2 (Homo sapiens) (O75116 whole entry, looked up, the tested form may be a part): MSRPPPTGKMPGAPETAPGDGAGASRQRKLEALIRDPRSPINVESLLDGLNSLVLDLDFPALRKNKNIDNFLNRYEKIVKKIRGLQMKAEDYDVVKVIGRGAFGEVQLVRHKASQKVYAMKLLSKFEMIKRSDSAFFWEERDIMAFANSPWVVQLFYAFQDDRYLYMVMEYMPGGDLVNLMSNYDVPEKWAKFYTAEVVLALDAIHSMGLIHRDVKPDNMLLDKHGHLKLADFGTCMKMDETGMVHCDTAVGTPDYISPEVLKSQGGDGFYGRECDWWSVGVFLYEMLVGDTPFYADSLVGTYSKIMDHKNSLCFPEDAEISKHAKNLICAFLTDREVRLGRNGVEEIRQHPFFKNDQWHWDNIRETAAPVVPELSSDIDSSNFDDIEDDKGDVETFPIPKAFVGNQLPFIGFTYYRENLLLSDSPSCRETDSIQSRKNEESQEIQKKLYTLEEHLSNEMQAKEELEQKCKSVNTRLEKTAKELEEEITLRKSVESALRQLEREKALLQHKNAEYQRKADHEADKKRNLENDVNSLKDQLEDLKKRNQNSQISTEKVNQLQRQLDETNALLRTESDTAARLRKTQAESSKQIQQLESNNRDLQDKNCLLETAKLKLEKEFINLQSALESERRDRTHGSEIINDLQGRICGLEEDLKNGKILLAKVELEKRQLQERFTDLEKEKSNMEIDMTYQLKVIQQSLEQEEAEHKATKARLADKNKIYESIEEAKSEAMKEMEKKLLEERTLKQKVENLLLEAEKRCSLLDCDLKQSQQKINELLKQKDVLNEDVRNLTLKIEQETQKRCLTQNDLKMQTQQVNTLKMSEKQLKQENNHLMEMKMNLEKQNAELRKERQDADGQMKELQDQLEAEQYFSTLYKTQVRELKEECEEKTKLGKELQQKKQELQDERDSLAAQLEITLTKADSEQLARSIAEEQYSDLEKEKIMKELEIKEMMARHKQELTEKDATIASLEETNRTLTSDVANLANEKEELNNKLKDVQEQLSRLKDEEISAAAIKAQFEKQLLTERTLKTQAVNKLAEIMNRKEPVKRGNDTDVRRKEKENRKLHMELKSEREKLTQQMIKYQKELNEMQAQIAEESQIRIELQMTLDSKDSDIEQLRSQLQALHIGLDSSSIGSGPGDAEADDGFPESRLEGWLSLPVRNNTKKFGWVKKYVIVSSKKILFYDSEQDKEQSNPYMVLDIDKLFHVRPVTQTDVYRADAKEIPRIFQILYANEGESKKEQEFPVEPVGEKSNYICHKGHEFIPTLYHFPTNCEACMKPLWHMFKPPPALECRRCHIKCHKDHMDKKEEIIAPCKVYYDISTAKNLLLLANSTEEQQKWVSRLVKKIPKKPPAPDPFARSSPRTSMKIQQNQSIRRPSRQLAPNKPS

Aurora kinase A = biological target: T1, Aurora kinase A (Homo sapiens, UniProt O14965); test: Inhibition of full length recombinant human N-terminal His6-tagged Aurora A expressed in Sf21 cells by radiometric assay
T1 sequence (O14965 whole entry): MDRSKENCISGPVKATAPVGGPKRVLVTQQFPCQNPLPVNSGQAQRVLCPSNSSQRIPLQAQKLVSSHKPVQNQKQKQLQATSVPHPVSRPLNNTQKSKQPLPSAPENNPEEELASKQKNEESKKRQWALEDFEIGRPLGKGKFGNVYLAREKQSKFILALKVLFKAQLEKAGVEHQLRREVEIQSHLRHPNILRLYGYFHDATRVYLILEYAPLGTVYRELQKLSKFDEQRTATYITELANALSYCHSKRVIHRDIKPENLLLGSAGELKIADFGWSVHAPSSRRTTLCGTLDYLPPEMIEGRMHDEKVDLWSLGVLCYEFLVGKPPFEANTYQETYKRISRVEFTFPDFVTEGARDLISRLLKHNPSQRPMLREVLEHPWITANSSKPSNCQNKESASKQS

[6] = biological target: Aurora kinase B/Inner centromere protein (Homo sapiens, UniProt Q96GD4); test: Inhibition of recombinant human His-tagged Aurora B/full length recombinant human N-terminal GST-tagged INCENP (821-end residues) expressed in baculovirus infected Sf21 cells by radiometric assay
Sequence of Aurora kinase B/Inner centromere protein (Q96GD4 whole entry): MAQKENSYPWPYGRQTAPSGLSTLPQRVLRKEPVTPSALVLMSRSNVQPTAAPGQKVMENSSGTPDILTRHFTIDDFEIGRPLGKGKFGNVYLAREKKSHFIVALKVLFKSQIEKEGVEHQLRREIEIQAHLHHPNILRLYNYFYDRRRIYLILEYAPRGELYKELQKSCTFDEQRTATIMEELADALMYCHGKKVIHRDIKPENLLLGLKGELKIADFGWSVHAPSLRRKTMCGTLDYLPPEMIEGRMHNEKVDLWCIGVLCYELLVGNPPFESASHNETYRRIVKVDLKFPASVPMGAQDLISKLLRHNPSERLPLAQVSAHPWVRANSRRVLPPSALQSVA
Sequence of Aurora kinase B/Inner centromere protein (Q9NQS7 whole entry, further chain): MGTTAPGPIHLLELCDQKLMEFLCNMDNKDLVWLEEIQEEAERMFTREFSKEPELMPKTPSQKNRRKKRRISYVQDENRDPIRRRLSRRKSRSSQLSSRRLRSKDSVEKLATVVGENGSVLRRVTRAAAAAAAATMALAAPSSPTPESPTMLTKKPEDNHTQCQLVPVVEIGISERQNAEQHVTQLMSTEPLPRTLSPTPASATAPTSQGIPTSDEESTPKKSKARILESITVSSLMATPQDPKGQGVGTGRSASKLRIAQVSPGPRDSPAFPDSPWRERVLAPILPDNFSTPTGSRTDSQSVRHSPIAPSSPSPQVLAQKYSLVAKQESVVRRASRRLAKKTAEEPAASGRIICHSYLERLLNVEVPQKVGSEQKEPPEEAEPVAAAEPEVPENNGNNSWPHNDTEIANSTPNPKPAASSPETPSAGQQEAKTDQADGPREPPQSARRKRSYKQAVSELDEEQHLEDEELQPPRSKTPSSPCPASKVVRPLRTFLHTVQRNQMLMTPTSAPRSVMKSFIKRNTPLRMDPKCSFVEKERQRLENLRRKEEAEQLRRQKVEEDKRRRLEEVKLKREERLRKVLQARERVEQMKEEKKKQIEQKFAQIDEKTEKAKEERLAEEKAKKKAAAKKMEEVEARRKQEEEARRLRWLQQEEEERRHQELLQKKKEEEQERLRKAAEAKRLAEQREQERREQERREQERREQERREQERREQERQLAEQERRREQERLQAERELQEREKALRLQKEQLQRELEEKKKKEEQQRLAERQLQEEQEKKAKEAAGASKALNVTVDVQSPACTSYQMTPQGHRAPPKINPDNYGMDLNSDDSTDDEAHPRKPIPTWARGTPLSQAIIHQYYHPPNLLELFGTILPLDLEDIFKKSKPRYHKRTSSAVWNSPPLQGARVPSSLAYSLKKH

[7] = biological target: T2, Serine/threonine-protein kinase PLK4 (Homo sapiens, UniProt O00444); test: Inhibition of human PLK4 by radiometric assay
T2 sequence (O00444 whole entry): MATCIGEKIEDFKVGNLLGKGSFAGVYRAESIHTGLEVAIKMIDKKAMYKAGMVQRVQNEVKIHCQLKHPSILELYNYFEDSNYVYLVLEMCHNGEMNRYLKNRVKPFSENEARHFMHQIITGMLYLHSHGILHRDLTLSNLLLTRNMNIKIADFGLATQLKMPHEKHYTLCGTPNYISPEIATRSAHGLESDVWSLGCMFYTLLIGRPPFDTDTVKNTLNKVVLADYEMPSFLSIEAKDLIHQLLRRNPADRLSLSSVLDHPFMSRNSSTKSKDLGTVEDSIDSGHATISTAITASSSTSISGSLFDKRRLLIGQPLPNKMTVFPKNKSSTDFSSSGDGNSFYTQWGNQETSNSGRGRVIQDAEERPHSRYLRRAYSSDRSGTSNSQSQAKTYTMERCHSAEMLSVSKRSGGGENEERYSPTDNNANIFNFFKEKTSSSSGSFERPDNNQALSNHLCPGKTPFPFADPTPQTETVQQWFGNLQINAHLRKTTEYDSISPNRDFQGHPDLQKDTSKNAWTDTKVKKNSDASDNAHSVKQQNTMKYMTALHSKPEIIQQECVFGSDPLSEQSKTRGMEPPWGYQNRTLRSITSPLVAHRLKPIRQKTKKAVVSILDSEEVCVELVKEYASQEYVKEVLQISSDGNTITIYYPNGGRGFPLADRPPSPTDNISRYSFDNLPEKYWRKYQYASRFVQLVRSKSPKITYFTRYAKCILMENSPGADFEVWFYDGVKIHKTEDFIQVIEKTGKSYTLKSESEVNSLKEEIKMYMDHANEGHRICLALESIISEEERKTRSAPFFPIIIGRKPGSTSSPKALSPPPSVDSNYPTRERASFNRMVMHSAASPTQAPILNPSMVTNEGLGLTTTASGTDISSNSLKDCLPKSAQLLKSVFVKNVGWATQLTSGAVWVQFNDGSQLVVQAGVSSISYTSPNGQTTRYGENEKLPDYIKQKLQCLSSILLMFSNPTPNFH

[8] = Antiproliferative activity against human HCT116 cells; type: functional; settings: HCT-116
[9] = Half life in mouse microsomes; type: ADME, Microsome
HT-29 = test: Antiproliferative activity against human HT-29 cells; type: functional
[10] = Antiproliferative activity against human PA1 cells; type: functional; settings: PA-1
MDA-MB-468 = test: Antiproliferative activity against human MDA-MB-468 cells; type: functional
[11] = Oral bioavailability in Sprague-Dawley rat; type: ADME, organism-based; settings: in vivo
[12] = Cmax in Sprague-Dawley rat at 1 mg/ml, iv; type: ADME, organism-based; set-up: dose 1 mg/ml, route intravenous; settings: in vivo
[13] = AUC (0 to infinity) in Sprague-Dawley rat at 1 mg/ml, iv; type: ADME, organism-based; set-up: dose 1 mg/ml, time infinity, route intravenous; settings: in vivo
[14] = Clearance in Sprague-Dawley rat at 1 mg/ml, iv; type: ADME, organism-based; settings: in vivo
[15] = Cmax in Sprague-Dawley rat at 5 mg/ml, iv; type: ADME, organism-based; set-up: dose 5 mg/ml, route intravenous; settings: in vivo
[16] = Protein binding in human plasma; type: ADME, cell-free; settings: read-out: PPB (converted)
[17] = AUC (0 to last) in CD-1 nude mouse at 25 mg/ml, po; type: ADME, organism-based; set-up: dose 25 mg/ml, time 0 - last, route oral; settings: in vivo
[18] = AUC (0 to last) in CD-1 nude mouse at 55 mg/ml, po; type: ADME, organism-based; set-up: dose 55 mg/ml, route oral, time 0 - last; settings: in vivo

In the case of `Cc1cc(-c2cnn3c(NCC4CCOCC4)nc(Oc4ccccc4)nc23)ccc1C(=O)NC1CC1`, the Cmax [1] is reported as 890 ng/mL, the Cmax [2] is reported as 3200 ng/mL and the Cmax [3] is reported as 7600 ng/mL. The inhibition [4] was -8%, the inhibition [5] was 0% and the IC50 (Aurora kinase A) was greater than 50 µM. It also gave an IC50 [6] greater than 50 µM, an IC50 [7] greater than 50 µM and a GI50 [8] of 0.013 µM. The half-life [9] was 46 min, the GI50 (HT-29) was 0.015 µM and the GI50 [10] was 0.03 µM. The GI50 (MDA-MB-468) was 0.16 µM, the bioavailability [11] was 97% and the Cmax [12] was 411 ng/mL. For the same compound, the AUC(0-inf) [13] was 871 ng·h/mL, the clearance [14] was 19 mL/min/kg and the Cmax [15] was 841 ng/mL. The fraction unbound [16] was 0.028, the AUC(0-t) [17] was 19100 ng·h/mL and the AUC(0-t) [18] was 38100 ng·h/mL.

Source: ChEMBL document CHEMBL3817791, “Discovery of 4-(4-aminopyrazolo[1,5-a][1,3,5]triazin-8-yl)benzamides as novel, highly potent and selective, orally bioavailable inhibitors of Tyrosine Threonine Kinase, TTK” (Bioorg Med Chem Lett, 2016)
